Measured values as given in ChEMBL document CHEMBL5614408, “Indole-core inhibitors of influenza a neuraminidase: iterative medicinal chemistry and molecular modeling” (Eur J Med Chem, 2024).
pIC50: −log10 of the molar value. Active and inactive are the calls of the source. The rule behind the calls is not given here.

What was measured:
[1] = biological target: Neuraminidase (Influenza A virus (A/Puerto Rico/8/1934(H1N1)), UniProt P03468); test: Inhibition of Influenza A virus A/Puerto Rico/8/34 (H1N1) neuraminidase assessed as reduction in neuraminidase activity by chemiluminescence based assay
Influenza A virus [2] = test: Antiviral activity against influenza A virus A/California/04/2009 (H1N1) infected in female BALB/c mouse model assessed as inhibition of viral replication in lungs at 50 mg/kg, po pretreated for 4 hrs followed by twice daily compound administration 4 hrs post viral infection and measured on day 4 post infection; assay type: functional, organism-based; settings: time 4.0 day
MDCK = test: (§1) Cytotoxicity against MDCK cells assessed as inhibition of cell growth incubated for 48 hrs by MTS assay; assay type: toxicity, cell-based, Canis lupus familiaris; settings: dog, mdck, 48 h
Influenza A virus [3] = test: Antiviral activity against Influenza A virus A/Puerto Rico/8/34 (H1N1) infected in MDCK cells assessed as inhibition of viral infection preincubated with cells for 1 hrs followed by viral infection and measured after 48 hrs by hemagglutination assay; assay type: functional, organism-based
[4] = Selectivity index, ratio of CC50 for cytotoxicity against MDCK cells to IC50 for antiviral activity against Influenza A virus A/Puerto Rico/8/34 (H1N1) infected in MDCK cells; assay type: toxicity, cell-based; settings: dog, read-out: Ratio CC50/IC50
Influenza A virus [5] = test: (§2) Antiviral activity against influenza A virus A/California/04/2009 (H1N1) infected in female BALB/c mouse model assessed as survival rate at 50 mg/kg, po pretreated for 4 hrs followed by twice daily compound administration 4 hrs post viral infection and measured on day 11 post infection relative to control; assay type: functional; settings: 264 h, time 11 day
Influenza A virus [6] = test: as §2, with “reduction in body weight loss” for “survival rate”, “20” for “50”, “infection” for “infection relative to control”; assay type: functional, organism-based; settings: time 11.0 day
Influenza A virus [7] = test: as §2, with “20” for “50”; assay type: functional; settings: 264 h, time 11 day
[8] = as §1; assay type: toxicity, cell-based, Canis lupus familiaris; settings: dog, MDCK cells

Neuraminidase (Influenza A virus (A/Puerto Rico/8/1934(H1N1)), UniProt P03468), sequence (P03468 whole entry): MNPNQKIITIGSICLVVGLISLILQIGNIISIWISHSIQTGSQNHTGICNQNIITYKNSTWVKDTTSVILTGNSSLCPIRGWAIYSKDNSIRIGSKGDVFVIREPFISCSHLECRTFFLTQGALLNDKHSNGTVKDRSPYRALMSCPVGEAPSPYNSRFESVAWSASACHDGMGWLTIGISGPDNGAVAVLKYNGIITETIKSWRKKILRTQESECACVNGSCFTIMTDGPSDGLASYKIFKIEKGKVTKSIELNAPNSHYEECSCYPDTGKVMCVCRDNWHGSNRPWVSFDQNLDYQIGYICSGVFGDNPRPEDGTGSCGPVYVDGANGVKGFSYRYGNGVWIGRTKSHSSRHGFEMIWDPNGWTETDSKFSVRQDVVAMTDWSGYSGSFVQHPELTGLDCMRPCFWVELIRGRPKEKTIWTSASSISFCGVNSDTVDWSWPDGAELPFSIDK

Compound	pIC50 [1]	other results
COc1ccccc1N/C=C1\C(=O)c2ccccc2N1C(C)=O	5.97	
CC(=O)N1/C(=C/Nc2ccccc2C(F)(F)F)C(=O)c2ccccc21	6.24	
CC(=O)N1/C(=C/Nc2cccc(F)c2)C(=O)c2ccccc21	7.52	Activity (Influenza A virus [2]): Active; CC50 (MDCK): 1480 µM; pIC50 (Influenza A virus [3]): 4.47; selectivity ratio [4]: 44; survival at 50 mg/kg (Influenza A virus [5]): 30%; Activity (Influenza A virus [6]): Active
COc1ccc(N/C=C2\C(=O)c3cccnc3N2C(C)=O)cc1	5.70	
COc1ccc(N/C=C2\C(=O)c3ccccc3N2C(C)=O)cc1	7.00	CC50 (MDCK): 1810 µM; pIC50 (Influenza A virus [3]): 4.92; selectivity ratio [4]: 151
CCC(=O)N1/C(=C/Nc2cccc(F)c2)C(=O)c2ccccc21	6.64	CC50 (MDCK): 95 µM; pIC50 (Influenza A virus [3]): 4.95; selectivity ratio [4]: 8
COc1ccc(N/C=C2\C(=O)c3cc(OC)ccc3N2C(C)=O)cc1	5.77	
CC(=O)N1/C(=C/Nc2ccccc2)C(=O)c2ccccc21	6.43	
CCC(=O)N1/C(=C/Nc2ccc(F)c(F)c2)C(=O)c2ccccc21	6.52	
COc1ccc(OC)c(N/C=C2\C(=O)c3ccccc3N2C(C)=O)c1	6.00	
CC(=O)N1/C(=C/Nc2ccc(Nc3ccccc3)cc2)C(=O)c2ccccc21	6.12	
CC(=O)N1/C(=C/Nc2ccc(F)c(F)c2)C(=O)c2ccccc21	6.33	
CC(=O)N1/C(=C/Nc2cccc(F)c2)C(=O)c2cccnc21	5.85	
COc1ccc(N/C=C2\C(=O)c3ccccc3N2C)cc1	6.00	
CC(=O)N1/C(=C/Nc2ccc(Cc3ccccc3)cc2)C(=O)c2ccccc21	7.00	CC50 (MDCK): 1740 µM; pIC50 (Influenza A virus [3]): 3.95; selectivity ratio [4]: 16
CC(=O)N1/C(=C/Nc2cc(F)c(F)c(F)c2)C(=O)c2ccccc21	6.00	
O=C1/C(=C\Nc2ccc(Cl)cc2)Nc2ccccc21	5.73	
COc1ccc(N/C=C2/Nc3ccccc3C2=O)cc1	5.52	
CCOC(=O)c1cccc(N/C=C2\C(=O)c3cc(Cl)ccc3N2C(C)=O)c1	5.69	
CCCCOc1ccc(N/C=C2\C(=O)c3ccccc3N2C(C)=O)cc1	6.38	
CCOC(=O)c1cccc(N/C=C2\C(=O)c3cc(OC)ccc3N2C(C)=O)c1	5.88	
CCOc1ccc(N/C=C2\C(=O)c3ccccc3N2C(C)=O)cc1	6.21	
CC(=O)N1/C(=C/Nc2cccc(F)c2F)C(=O)c2ccccc21	6.02	
CC(=O)N1/C(=C/Nc2cccc(OC(F)(F)F)c2)C(=O)c2ccccc21	6.70	Activity (Influenza A virus [2]): Active; CC50 (MDCK): 105 µM; pIC50 (Influenza A virus [3]): 5.52; selectivity ratio [4]: 35; survival at 50 mg/kg (Influenza A virus [5]): 30%; Activity (Influenza A virus [6]): Active

Compound	pIC50 [1]	other results
COc1ccc(N/C=C2\C(=O)c3ccccc3N2C(C)=O)cc1OC	4.60	
CC(=O)N1/C(=C/Nc2ccncc2)C(=O)c2ccccc21	5.97	
CCOC(=O)C1=C[C@@H](OC(CC)CC)[C@H](NC(C)=O)[C@@H](N)C1 [OSELTAMIVIR]		survival at 20 mg/kg (Influenza A virus [7]): 50%
CC(=O)N1/C(=C/Nc2cccc(Oc3ccccc3)c2)C(=O)c2ccccc21	6.30	
CC(=O)N1/C(=C/Nc2cccc(C(F)(F)F)c2)C(=O)c2ccccc21	6.02	
CC(=O)N1/C(=C/Nc2ccc(Cl)cc2)C(=O)c2ccccc21	5.86	
COc1cccc(N/C=C2\C(=O)c3ccccc3N2C(C)=O)c1	6.43	
COc1ccc(N/C=C2\C(=O)c3cc(Cl)ccc3N2C(C)=O)cc1	5.27	
CCOC(=O)c1cccc(N/C=C2\C(=O)c3ccccc3N2C(C)=O)c1	6.55	
CC(=O)N1/C(=C/Nc2cc(F)cc(F)c2)C(=O)c2ccccc21	6.28	
CC(=O)N1/C(=C/Nc2ccccn2)C(=O)c2ccccc21	5.92	
O=C1/C(=C\Nc2ccccc2)Nc2ccccc21	5.27	
CC(=O)N1/C(=C/Nc2cccc(Oc3ccccc3)c2)C(=O)c2cccnc21		CC50 at 48 h [8]: 540 µM; pIC50 (Influenza A virus [3]): 3.92; selectivity ratio [4]: 5
CC(=O)N1/C(=C/Nc2cccc(Cc3ccccc3)c2)C(=O)c2ccccc21	6.70	
CC(=O)N1/C(=C/Nc2ccc(OC(F)(F)F)cc2)C(=O)c2ccccc21	5.29	
CCC(=O)N1/C(=C/Nc2ccc(F)cc2)C(=O)c2ccccc21	6.37	
CCC(=O)N1/C(=C/Nc2ccc(OC)cc2)C(=O)c2ccccc21	6.14	
CC(=O)N1/C(=C/Nc2cccc(S(N)(=O)=O)c2)C(=O)c2ccccc21	6.19	
COc1cc(N/C=C2\C(=O)c3ccccc3N2C(C)=O)cc(OC)c1OC	5.57	
CC(=O)N1/C(=C/Nc2ccc(F)cc2)C(=O)c2ccccc21	6.47	
CCOC(=O)c1cccc(N/C=C2\C(=O)c3cccnc3N2C(C)=O)c1	5.01	
O=C1/C(=C\NCc2ccccc2)Nc2ccccc21	4.89	
CC(=O)N1/C(=C/NCc2ccc(F)c(F)c2)C(=O)c2ccccc21	4.95	
CC(=O)N1/C(=C/Nc2ccc(C(F)(F)F)cc2)C(=O)c2ccccc21	6.11	
